In patent publication US6369069B1 (Aventis Pharma Deutschland GmbH, priority 1998, dated 2002):

Each molecule was assayed on Na^+-dependent Cl^−/HCO3^− exchanger (NCBE) (assay: Inhibition of the Na+-dependent Cl−/HCO3− exchanger (NCBE) in human endothelial cells (pHi recovery, BCECF fluorescence, FLIPR)). Settings: 10 μM.
Assay type: cell-based
Protocol: Inhibition of the Na^+-dependent Cl^−/HCO3^− exchanger (NCBE) in human endothelial cells
Human endothelial cells (ECV-304) were detached form culture flasks with the aid of trypsin/EDTA buffer (0.05/0.02% in phosphate buffer) and, after centrifugation (100 g, 5 min), taken up in a buffered saline solution (mmol/l: 115 NaCl, 20 NH4Cl, 5 KCl, 1 CaCl2, 1 MgSO4, 20 N-(2-hydroxyethyl)-piperazine-N[…]-2-ethanesulfonic acid (HEPES), 5 glucose and 1 g/l of bovine serum albumin; pH 7.4). This cell suspension was incubated at 37 °C. for 20 min with 5 μM BCECF acetoxymethyl ester. The cells were then washed and resuspended in a sodium- and bicarbonate-free buffer solution (mmol/l: 5 HEPES, 133.8 choline chloride, 4.7 KCl, 1.25 MgCl2, 0.97 K2HPO4, 0.23 KH2PO4, 5 glucose; pH 7.4).
For the subsequent fluorescence measurement in the FLIPR (Fluorescent Imaging Plate Reader), 100 μl of this cell suspension in each case containing 20,000 cells were added by pipette per well of a 96-well microtiter plate and this microtiter plate was centrifuged (100 g, 5 min). In the FLIPR, 100 μl of buffer solution in each case were then removed from a further prepared microtiter plate and added by pipette to each of the 96 wells of the measuring plate. In this case, for a 100% control, i.e. a recovery of the intracellular pH (pHi) by means of the NCBE, a bicarbonate- and sodium-containing buffer solution (mmol/l: 5 HEPES, 93.8 NaCl, 40 NaHCO3, 4.7 KCl, 1.25 CaCl2, 1.25 MgCl2, 0.97 Na2HPO4, 0.23 NaH2PO4, 5 glucose; pH 7.4) which contained 50 μM HOE 642 was used. For a 0% control, i.e. no pHi recovery at all, a bicarbonate-free, sodium-containing buffer solution (mmol/l: 5 HEPES, 133.8 NaCl, 4.7 KCl, 1.25 CaCl2, 1.25 MgCl2, 0.97 Na2HPO4, 0.23 NaH2PO4, 5 glucose; pH 7.4) to which 50 μM HOE 642 were also added was employed. The compounds according to the invention were added in various concentrations of the sodium- and bicarbonate-containing solution. After addition of the buffer solutions to the dye-loaded acidified cells situated in the measuring plate, the increase in the fluorescence intensity which corresponded to an increase in the pHi was determined in each well of the microtiter plate.
The kinetics were in this case recorded at 35° C. over a period of 2 minutes. The increase in the fluorescence intensities for different concentrations of the compounds according to the invention was related to the two controls and from this the inhibitory action of the substances was determined.

Compound | Residual activity % of the NCBE at 10 μM
N#CNS(=O)(=O)c1ccccc1-c1ccc(CN(Cc2ccccc2)C(=O)c2ccccc2Cl)cc1 [Example 55] | 29.3%
N#CNS(=O)(=O)c1ccccc1-c1ccc(CN(CCCc2ccccc2)C(=O)Cc2csc3ccccc23)cc1 [Example 210] | 66.2%
CC(=O)N(CCOc1ccccc1)Cc1ccc(-c2ccccc2S(=O)(=O)NC#N)cc1 [Example 180] | 70.9%
COC(=O)C(Cc1ccccc1)N(Cc1ccc(-c2ccccc2S(=O)(=O)NC#N)cc1)C(=O)Cc1c[nH]c2ccccc12 (stereo not drawn) [Example 209] | 56.2%
CC(C)(C)CC(=O)N(Cc1ccc(F)cc1)Cc1ccc(-c2ccccc2S(=O)(=O)NC#N)cc1 [Example 163] | 93.4%
N#CNS(=O)(=O)c1ccccc1-c1ccc(CN(Cc2cccc(-c3ccccc3)c2)C(=O)CC2CCCCC2)cc1 [Example 357] | 61.9%
COc1cccc(CC(=O)N(Cc2ccc(-c3ccccc3S(=O)(=O)NC#N)cc2)C2CCCCC2)c1 [Example 24] | 92.1%
N#CNS(=O)(=O)c1ccccc1-c1ccc(CN(Cc2ccccc2)C(=O)c2ccccc2)cc1 [Example 61] | 56.6%
COc1cc(C(=O)N(Cc2ccc(Cl)cc2)Cc2ccc(-c3ccccc3S(=O)(=O)NC#N)cc2)cc(OC)c1OC [Example 52] | 59.9%
N#CNS(=O)(=O)c1ccccc1-c1ccc(CN(Cc2ccncc2)C(=O)Cc2cccs2)cc1 [Example 146] | 69.8%
COCCC(=O)N(Cc1ccc(-c2ccccc2S(=O)(=O)NC#N)cc1)CC1CCCO1 (stereo not drawn) [Example 328] | 87.0%
COc1ccc(CCN(Cc2ccc(-c3ccccc3S(=O)(=O)NC#N)cc2)C(=O)C(c2ccccc2)c2ccccc2)cc1 [Example 120] | 81.3%
COc1cccc(CN(Cc2ccc(-c3ccccc3S(=O)(=O)NC#N)cc2)C(=O)NC(C)C)c1 [Example 302] | 80.4%
N#CNS(=O)(=O)c1ccccc1-c1ccc(CN(Cc2cccc(Cl)c2)C(=O)Cc2ccccc2Br)cc1 [Example 278] | 31.2%
COc1ccc(CC(=O)N(CCOc2ccccc2)Cc2ccc(-c3ccccc3S(=O)(=O)NC#N)cc2)cc1 [Example 173] | 76.4%
COCCN(Cc1ccc(-c2ccccc2S(=O)(=O)NC#N)cc1)C(=O)Cc1cccs1 [Example 237] | 50.3%
CCN(Cc1ccc(-c2ccccc2S(=O)(=O)NC#N)cc1)C(=O)CCCc1cccs1 [Example 191] | 39.3%
N#CNS(=O)(=O)c1ccccc1-c1ccc(CN(CCO)C(=O)c2ccccc2F)cc1 [Example 38] | 66.7%
CCN(Cc1ccc(-c2ccccc2S(=O)(=O)NC#N)cc1)C(=O)Cc1cccs1 [Example 240] | 58.0%

Compound | Residual activity % of the NCBE at 10 μM
CCCC(=O)N(Cc1ccc(OC)cc1)Cc1ccc(-c2ccccc2S(=O)(=O)NC#N)cc1 [Example 3] | 80.9%
N#CNS(=O)(=O)c1ccccc1-c1ccc(CN(Cc2cccc(Cl)c2Cl)C(=O)CCOc2ccccc2)cc1 [Example 339] | 46.8%
N#CNS(=O)(=O)c1ccccc1-c1ccc(CN(Cc2ccccc2)C(=O)C(N)c2ccccc2)cc1 (stereo not drawn) [Example 241] | 66.0%
CCN(Cc1ccc(-c2ccccc2S(=O)(=O)NC#N)cc1)C(=O)Cc1ccsc1 [Example 231] | 57.8%
N#CNS(=O)(=O)c1ccccc1-c1ccc(CN(Cc2cccc(Cl)c2)C(=O)NC2CCCCC2)cc1 [Example 308] | 32.1%
COCCC(=O)N(Cc1ccc(-c2ccccc2S(=O)(=O)NC#N)cc1)Cc1ccccc1C [Example 322] | 66.3%
COCCN(Cc1ccc(-c2ccccc2S(=O)(=O)NC#N)cc1)C(=O)Cc1csc2ccccc12 [Example 211] | 50.6%
N#CNS(=O)(=O)c1ccccc1-c1ccc(CN(Cc2ccco2)C(=O)COc2ccccc2)cc1 [Example 164] | 76.4%
COc1ccc(CCN(Cc2ccc(-c3ccccc3S(=O)(=O)NC#N)cc2)C(=O)Cc2ccccc2)cc1 [Example 130] | 77.8%
COC(=O)C(c1ccccc1)N(Cc1ccc(-c2ccccc2S(=O)(=O)NC#N)cc1)C(=O)CCc1cccs1 (stereo not drawn) [Example 286] | 68.8%
COc1ccccc1CN(Cc1ccc(-c2ccccc2S(=O)(=O)NC#N)cc1)C(=O)C(c1ccccc1)c1ccccc1 [Example 114] | 81.7%
COc1ccc(CN(Cc2ccc(-c3ccccc3S(=O)(=O)NC#N)cc2)C(=O)CCC2CCCCC2)cc1 [Example 9] | 86.6%
COC(=O)C(Cc1ccccc1)N(Cc1ccc(-c2ccccc2S(=O)(=O)NC#N)cc1)C(=O)CCCCc1cccs1 (stereo not drawn) [Example 225] | 88.1%
N#CNS(=O)(=O)c1ccccc1-c1ccc(CN(C(=O)CCC2CCCCC2)C2CCCCC2)cc1 [Example 12] | 92.9%
CN(Cc1ccc(-c2ccccc2S(=O)(=O)NC#N)cc1)C(=O)Cc1csc2ccccc12 [Example 214] | 44.3%
N#CNS(=O)(=O)c1ccccc1-c1ccc(CN(Cc2ccc(Cl)cc2Cl)C(=O)CCc2cccs2)cc1 [Example 288] | 63.1%
COc1ccc(CCN(Cc2ccc(-c3ccccc3S(=O)(=O)NC#N)cc2)C(=O)c2ccccc2F)cc1 [Example 100] | 94.1%
COC(=O)C(c1ccccc1)N(Cc1ccc(-c2ccccc2S(=O)(=O)NC#N)cc1)C(=O)Cc1ccccc1Br (stereo not drawn) [Example 274] | 73.6%
N#CNS(=O)(=O)c1ccccc1-c1ccc(CN(Cc2ccc(Cl)cc2Cl)C(=O)CCS(=O)(=O)c2ccccc2)cc1 [Example 279] | 90.5%

Same assay, conditions: 10 μM compound; human endothelial cells (ECV-304); related to 100% and 0% pHi recovery controls

Compound | Residual activity of the NCBE at 10 μM
COCCOc1cc(-c2ccccc2S(=O)(=O)NC#N)ccc1CN(Cc1ccccc1)S(=O)(=O)c1cccs1 [Example 558, 4′-{[Benzyl(thiophene-2-sulfonyl)amino]methyl}-3′-(2-methoxy)ethoxy-biphenyl-2-sulfonylcyanamide] | 30%

Same assay, conditions: compound at 10 μM; R(3) to R(7) hydrogen series

Compound | Residual activity % of the NCBE at 10 μM
N#CNS(=O)(=O)c1ccccc1-c1ccc(CN(CC2CC(C(=O)N3CCCC3)=NO2)C(=O)Cc2cccs2)cc1 (stereo not drawn) [Example 396] | 53.2%
CC(C(=O)N(Cc1ccc(-c2ccccc2S(=O)(=O)NC#N)cc1)CC1(c2ccccc2)CCCC1)c1cccs1 (stereo not drawn) [Example 393] | 16.7%
CC(C(=O)N(Cc1ccc(-c2ccccc2S(=O)(=O)NC#N)cc1)Cc1cccc2ccccc12)c1cccs1 (stereo not drawn) [Example 390] | 89.8%

Same assay, conditions: compound at 10 μM; sub-table with R7 substituent

Compound | Residual activity % of the NCBE at 10 μM
Cc1ccc(-c2ccc(CN(Cc3cccs3)C(=O)C(C)c3cccs3)cc2)c(S(=O)(=O)NC#N)c1 (stereo not drawn) [Example 525] | 74.0%
Cc1ccc(-c2ccc(CN(Cc3ccccc3)C(=O)Cc3ccc(Cl)cc3)cc2)c(S(=O)(=O)NC#N)c1 [Example 529] | 89.4%
Cc1ccc(-c2ccc(CN(Cc3ccccc3F)C(=O)CC3CCCCC3)cc2)c(S(=O)(=O)NC#N)c1 [Example 551] | 82.6%
